The target of one data set is T1, PDGFRβ (Homo sapiens, UniProt P09619).
T1 construct: expressed in transfected cells; host or cells: porcine aorta endothelial (PAE) cells
Briefly: PAE-PDGFRβ phosphorylation in PAE-PDGFRB cells assay. The class given is cell-based. The note with it: PAE cells overexpressing human PDGFRβ, PDGF-BB stimulated; read-out: PAE PDGFR autophos IC50. The essentials:
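PAE cells overexpressing human PDGFRβ, serum-starved 16 h (0.1% FBS), compound 1 h at 37° C (0.5% DMSO), then 1 μg/mL PDGF-BB with 2 mM Na3VO4 for 8 min. Receptor captured by anti-PDGFRβ, phosphotyrosine detected by HRP-PY20/TMB at 450 nm; IC50 by four-parameter fit.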

For another data set, the system named is HUVEC. Kind of data set: bFGF HUVEC proliferation. Type of data set: cell-based, human. The note with it: Homo sapiens, HUVEC, bFGF stimulated HUVEC.
Another data set is described as follows: Mouse PK assay. The note with it: po; for AUC / Cmax: female, B6, mouse, plasma, 50 mg/kg; for Cmax: p.o., read-out: Mouse Cmax, po ng-h/mL. The class given is in vivo, B6 female mice. The essentials:
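Plasma levels were measured by HPLC with UV detection after acetonitrile precipitation, using extracted standards, in blood taken up to 4 h (0.5, 1, 2, 4 h) post-dose. Dosing: 50 mg/kg orally or intraperitoneally to two groups of four female B6 mice, vehicle PEG 400:acidified H2O 30:70 suspension.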

In a further data set the target is T2, KDR (VEGFR2) (Homo sapiens, UniProt P35968).
T2 construct: expressed in transfected cells; host or cells: porcine aorta endothelial (PAE) cells
Briefly: KDR (VEGFR2) phosphorylation in PAE-KDR cells assay. Type of data set: cell-based. The note with it: PAE cells overexpressing human KDR, VEGF stimulated; read-out: PAE KDR autophos IC50. In a few lines:
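PAE cells overexpressing human KDR, serum-starved 16 h (0.1% FBS), treated with compound 1 h at 37° C (0.5% DMSO), then stimulated 8 min with 500 ng/ml VEGF plus 2 mM Na3VO4. Lysate KDR phosphotyrosine measured by capture ELISA (anti-pY HRP, 450 nm); IC50 by four-parameter fit.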

We go through 17 compounds from patent US6833456B2, “Indolyl-urea derivatives of thienopyridines useful as antiangiogenic agents, and methods for their use” (Agouron Pharmaceuticals, Inc., priority 2002, dated 2004).

Where “and” joins values, the source holds several entries; their conditions need not be identical. Equal entries are not always repeated. Some results are limits rather than exact numbers.

T2 sequence (P35968 20-1356): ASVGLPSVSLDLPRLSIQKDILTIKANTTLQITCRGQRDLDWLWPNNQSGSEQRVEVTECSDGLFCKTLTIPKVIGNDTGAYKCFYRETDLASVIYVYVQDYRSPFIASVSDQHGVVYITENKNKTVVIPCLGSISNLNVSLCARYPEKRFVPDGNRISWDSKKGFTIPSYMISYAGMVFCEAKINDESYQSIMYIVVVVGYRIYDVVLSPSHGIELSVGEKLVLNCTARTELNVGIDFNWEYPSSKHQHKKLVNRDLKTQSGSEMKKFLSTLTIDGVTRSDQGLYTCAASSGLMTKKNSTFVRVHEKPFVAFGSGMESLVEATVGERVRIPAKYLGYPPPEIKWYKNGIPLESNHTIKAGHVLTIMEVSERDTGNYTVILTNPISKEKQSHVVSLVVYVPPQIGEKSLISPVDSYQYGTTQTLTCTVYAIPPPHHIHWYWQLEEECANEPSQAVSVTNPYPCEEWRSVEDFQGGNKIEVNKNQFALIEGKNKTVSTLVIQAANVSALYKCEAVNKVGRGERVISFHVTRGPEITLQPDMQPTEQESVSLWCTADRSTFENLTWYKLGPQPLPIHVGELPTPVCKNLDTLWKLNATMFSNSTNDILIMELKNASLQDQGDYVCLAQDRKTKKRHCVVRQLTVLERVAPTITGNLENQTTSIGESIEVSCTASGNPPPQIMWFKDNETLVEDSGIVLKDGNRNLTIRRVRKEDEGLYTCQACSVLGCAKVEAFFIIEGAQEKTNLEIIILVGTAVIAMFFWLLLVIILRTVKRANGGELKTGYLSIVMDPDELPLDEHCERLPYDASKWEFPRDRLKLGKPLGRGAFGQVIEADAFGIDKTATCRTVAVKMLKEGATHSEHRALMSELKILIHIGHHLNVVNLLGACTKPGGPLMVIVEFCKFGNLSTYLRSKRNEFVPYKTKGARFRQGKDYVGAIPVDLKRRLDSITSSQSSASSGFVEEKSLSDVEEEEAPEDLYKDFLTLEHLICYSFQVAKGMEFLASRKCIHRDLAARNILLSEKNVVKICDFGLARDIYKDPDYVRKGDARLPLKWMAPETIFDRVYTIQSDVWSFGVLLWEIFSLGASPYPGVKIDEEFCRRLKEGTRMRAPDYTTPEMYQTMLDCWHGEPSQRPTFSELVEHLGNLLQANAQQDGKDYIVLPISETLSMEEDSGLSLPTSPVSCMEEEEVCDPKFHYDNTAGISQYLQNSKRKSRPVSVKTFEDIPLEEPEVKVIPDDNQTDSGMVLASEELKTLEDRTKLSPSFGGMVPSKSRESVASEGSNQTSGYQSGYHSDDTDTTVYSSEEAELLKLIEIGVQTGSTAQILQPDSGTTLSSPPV
T1 sequence (P09619 33-1106): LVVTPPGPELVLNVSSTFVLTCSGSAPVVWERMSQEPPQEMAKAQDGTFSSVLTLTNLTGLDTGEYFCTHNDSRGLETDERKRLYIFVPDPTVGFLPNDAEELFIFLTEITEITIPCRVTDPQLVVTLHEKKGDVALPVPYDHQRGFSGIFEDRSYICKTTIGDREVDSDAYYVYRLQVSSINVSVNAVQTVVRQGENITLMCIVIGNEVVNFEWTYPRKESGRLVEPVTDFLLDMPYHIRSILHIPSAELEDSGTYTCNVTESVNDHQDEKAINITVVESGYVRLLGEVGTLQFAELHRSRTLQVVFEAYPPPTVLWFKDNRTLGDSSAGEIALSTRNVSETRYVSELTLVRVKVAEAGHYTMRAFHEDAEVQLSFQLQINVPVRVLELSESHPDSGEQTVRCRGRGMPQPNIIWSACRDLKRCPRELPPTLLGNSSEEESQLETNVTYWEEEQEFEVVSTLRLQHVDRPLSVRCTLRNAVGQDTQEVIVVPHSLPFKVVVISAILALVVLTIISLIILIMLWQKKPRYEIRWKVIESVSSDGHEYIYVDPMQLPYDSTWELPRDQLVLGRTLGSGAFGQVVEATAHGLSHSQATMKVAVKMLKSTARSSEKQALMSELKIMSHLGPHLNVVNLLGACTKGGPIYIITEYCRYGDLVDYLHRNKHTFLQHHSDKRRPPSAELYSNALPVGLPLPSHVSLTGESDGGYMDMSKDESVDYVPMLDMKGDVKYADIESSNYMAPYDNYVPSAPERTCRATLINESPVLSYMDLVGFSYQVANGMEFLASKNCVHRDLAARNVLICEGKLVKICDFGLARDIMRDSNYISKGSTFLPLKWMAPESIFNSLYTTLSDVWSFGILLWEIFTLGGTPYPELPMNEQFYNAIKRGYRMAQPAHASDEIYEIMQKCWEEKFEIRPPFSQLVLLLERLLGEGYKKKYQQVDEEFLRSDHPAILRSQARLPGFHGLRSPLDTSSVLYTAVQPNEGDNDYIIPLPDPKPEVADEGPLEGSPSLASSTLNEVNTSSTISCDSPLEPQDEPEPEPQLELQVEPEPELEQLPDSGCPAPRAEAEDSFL

One may read the IC50 as the concentration that gives 50% inhibition. As usually defined, the AUC is concentration integrated over time. Read a high AUC as high exposure. On to `Cc1cc2cc(Nc3ccnc4cc(C(=O)N5CCC[C@@H]5CO)sc34)ccc2n1C(=O)NC1CC1` [Example 1c, 5-[2-(2R-Hydroxymethyl-pyrrolidine-1-carbonyl)-thieno[3,2-b]pyridin-7-ylamino]-2-methyl-indole-1-carboxylic acid cyclopropylamide], for which the IC50 at PDGFRβ is > 100 nM and 179 nM. In the data set with HUVEC, this compound yielded an IC50 of 158 nM. In addition, in “Mouse PK assay”, the AUC worked out at 616 ng·h/mL; the Cmax was 317 ng/mL; the “Mouse Cmin, po” value was found to be 7 ng/mL.
On to `CNC(=O)n1c(C)cc2cc(Nc3ccnc4cc(C(=O)N5CCC[C@H]5COC)sc34)ccc21` [Example 1t, 5-(2-[(S)-2-(methoxymethyl)pyrrolidine-1-carbonyl]thieno[3,2-b]pyridin-7-ylamino)-2-methylindole-1-carboxylic acid methylamide], for which, on PDGFRβ, the IC50 is 116 nM and > 100 nM and 97 nM. Moreover, in the data set “Mouse PK assay”, the AUC came out at 5860 ng·h/mL; the Cmax worked out at 4650 ng/mL; the “Mouse Cmin, po” value worked out at 4 ng/mL. Further, the IC50 on KDR (VEGFR2) was 0.67 nM and 0.35 nM and 0.41 nM.
For `CNC(=O)n1c(C)cc2cc(Nc3ccnc4cc(-c5nccn5C)sc34)ccc21` [Example 2a, 5-(2-[1-methyl-1H-imidazol-2-yl]thieno[3,2-b]pyridin-7-ylamino)-2-methylindole-1-carboxylic acid methylamide], the IC50 on PDGFRβ was 57 nM and 96 nM and 61 nM and 41 nM. Also, in the data set “Mouse PK assay”, the AUC worked out at 1170 ng·h/mL; the Cmax stood at 1010 ng/mL; the “Mouse Cmin, po” value was determined as 19 ng/mL. Also, the IC50 on KDR (VEGFR2) is 0.36 nM and 0.28 nM and 0.32 nM.
Consider `CNC(=O)n1c(C)cc2cc(Nc3ccnc4cc(C(=O)N5CCC[C@H]5CO)sc34)ccc21` [Example 2b, 5-(2-[(S)-2-(hydroxymethyl)pyrrolidine-1-carbonyl]thieno[3,2-b]pyridin-7-ylamino)-2-methylindole-1-carboxylic acid methylamide], for which the IC50 on PDGFRβ is 856 nM and > 100 nM and 616 nM and 556 nM and 657 nM and 682 nM. Besides, in “Mouse PK assay”, the AUC was 2800 ng·h/mL; the Cmax came to 1900 ng/mL; the “Mouse Cmin, po” value was determined as 10 ng/mL. Besides, the IC50 at KDR (VEGFR2) is 1.42 nM and 1.43 nM and 1.27 nM.
Consider `CNC(=O)n1c(C)cc2cc(Nc3ccnc4cc(-c5nc(C(C)(C)O)cs5)sc34)ccc21` [Example 3a, 5-{2-[4-(1-Hydroxy-1-methyl-ethyl)-thiazol-2-yl]-thieno[3,2-b]pyridin-7-ylamino}-2-methyl-indole-1-carboxylic acid methylamide], for which, at PDGFRβ, the IC50 was 84 nM and 99 nM. Besides, in “Mouse PK assay”, the AUC came out at 10300 ng·h/mL; the Cmax stood at 3950 ng/mL; the “Mouse Cmin, po” value came to 408 ng/mL. Besides, the IC50 on KDR (VEGFR2) was 0.72 nM and 0.33 nM and 0.35 nM.
As for `Cc1cc2cc(Nc3ccnc4cc(-c5nc(C(C)(C)O)cs5)sc34)ccc2n1C(=O)NC1CC1` [Example 3b, 5-{2-[4-(1-Hydroxy-1-methyl-ethyl)-thiazol-2-yl]-thieno[3,2-b]pyridin-7-ylamino}-2-methyl-indole-1-carboxylic acid cyclopropylamide], the IC50 on PDGFRβ is 142 nM and 125 nM. In addition, in the data set “Mouse PK assay”, the AUC came to 18800 ng·h/mL; the Cmax stood at 11100 ng/mL; the “Mouse Cmin, po” value is recorded as 252 ng/mL. The IC50 on KDR (VEGFR2) was 0.32 nM and 0.444 nM.
As for `C#CCNC(=O)n1c(C)cc2cc(Oc3ccnc4cc(C(=O)N5CCC[C@H]5COC)sc34)ccc21` [Example 4c, 5-(2-[(S)-2-(methoxymethyl)pyrrolidine-1-carbonyl]thieno[3,2-b]pyridin-7-yloxy)-2-methylindole-1-carboxylic acid prop-2-ynylamide], at PDGFRβ, the IC50 is 16 nM and 18 nM and 15 nM. Moreover, in “Mouse PK assay”, the AUC is 8310 ng·h/mL; the Cmax is 2760 ng/mL; the “Mouse Cmin, po” value is reported as 313 ng/mL. Also, the IC50 on KDR (VEGFR2) is 0.28 nM and 0.24 nM and 0.36 nM.
As for `COC[C@@H]1CCCN1C(=O)c1cc2nccc(Oc3ccc4c(c3)cc(C)n4C(=O)NCC#CCO)c2s1` [Example 4d, 5-(2-[(S)-2-(methoxymethyl)pyrrolidine-1-carbonyl]thieno[3,2-b]pyridin-7-yloxy)-2-methylindole-1-carboxylic acid (4-hydroxybut-2-ynyl)amide], the IC50 on PDGFRβ was 76 nM and 71 nM and 64 nM. Further, in the data set “Mouse PK assay”, the AUC is 4060 ng·h/mL; the Cmax was 1960 ng/mL; the “Mouse Cmin, po” value stood at 54 ng/mL. The half-maximal inhibitory concentration (IC50) at KDR (VEGFR2) is 0.37 nM and 0.26 nM and 0.55 nM.
On to `C#CCNC(=O)n1c(C)cc2cc(Oc3ccnc4cc(C(=O)N5CC[C@H](OC)C5)sc34)ccc21` [Example 4f, 5-[2-(3S-Methoxy-pyrrolidine-1-carbonyl)-thieno[3,2-b]pyridin-7-yloxy]-2-methyl-indole-1-carboxylic acid prop-2-ynylamide], for which, at PDGFRβ, the concentration for half-maximal inhibition (IC50) turned out to be 14 nM. In addition, in “Mouse PK assay”, the AUC is 15600 ng·h/mL; the Cmax was found to be 8840 ng/mL; the “Mouse Cmin, po” value amounted to 112 ng/mL. Also, the IC50 at KDR (VEGFR2) is 0.149 nM.
On to `CNC(=O)n1c(C)cc2cc(Oc3ccnc4cc(C(=O)N5CC[C@H](OC)C5)sc34)ccc21` [Example 4g, 5-[2-(3S-Methoxy-pyrrolidine-1-carbonyl)-thieno[3,2-b]pyridin-7-yloxy]-2-methyl-indole-1-carboxylic acid methylamide], for which, at PDGFRβ, the IC50 worked out at 10.5 nM. For the same compound, in “Mouse PK assay”, the AUC was 3620 ng·h/mL; the Cmax was 2280 ng/mL; the “Mouse Cmin, po” value is 20 ng/mL. For the same compound, the IC50 on KDR (VEGFR2) is 0.58 nM and 0.98 nM.
In the case of `CO[C@H]1CCN(C(=O)c2cc3nccc(Oc4ccc5c(c4)cc(C)n5C(=O)NC4CC4)c3s2)C1` [Example 4h, 5-[2-(3S-Methoxy-pyrrolidine-1-carbonyl)-thieno[3,2-b]pyridin-7-yloxy]-2-methyl-indole-1-carboxylic acid cyclopropylamide], on PDGFRβ, the IC50 turned out to be 19 nM. Also, in “Mouse PK assay”, the exposure (AUC) stood at 2600 ng·h/mL; the Cmax came out at 657 ng/mL; the “Mouse Cmin, po” value is 161 ng/mL. The IC50 on KDR (VEGFR2) is 0.116 nM and 0.34 nM and 0.21 nM.
As for `C#CCNC(=O)n1c(C)cc2cc(Oc3ccnc4cc(C(=O)N5CC[C@@H](OC)C5)sc34)ccc21` [Example 4l, 5-[2-(3R-Methoxy-pyrrolidine-1-carbonyl)-thieno[3,2-b]pyridin-7-yloxy]-2-methyl-indole-1-carboxylic acid prop-2-ynylamide], the IC50 at PDGFRβ is 15 nM. In the data set “Mouse PK assay”, the AUC was 321000 ng·h/mL; the Cmax came to 11300 ng/mL; the “Mouse Cmin, po” value is given as 9020 ng/mL. The IC50 at KDR (VEGFR2) amounted to 0.09 nM.
Regarding `CNC(=O)n1c(C)cc2cc(Oc3ccnc4cc(C(=O)N5CC[C@@H](O)C5)sc34)ccc21` [Example 4n, 5-[2-(3R-Hydroxy-pyrrolidine-1-carbonyl)-thieno[3,2-b]pyridin-7-yloxy]-2-methyl-indole-1-carboxylic acid methylamide], the IC50 at PDGFRβ was found to be 5.8 nM. In addition, in the data set “Mouse PK assay”, the AUC is 1850 ng·h/mL; the Cmax worked out at 1110 ng/mL; the “Mouse Cmin, po” value is 45 ng/mL. For the same compound, the IC50 at KDR (VEGFR2) is 0.35 nM and 0.16 nM and 0.167 nM.
For the compound `Cc1cc2cc(Oc3ccnc4cc(C(=O)N5CC[C@@H](O)C5)sc34)ccc2n1C(=O)NC1CC1` [Example 4p, 5-[2-(3R-Hydroxy-pyrrolidine-1-carbonyl)-thieno[3,2-b]pyridin-7-yloxy]-2-methyl-indole-1-carboxylic acid cyclopropylamide], on PDGFRβ, the half-inhibitory concentration (IC50) came to 4 nM. In addition, in the data set “Mouse PK assay”, the AUC was determined as 4630 ng·h/mL; the Cmax amounted to 2710 ng/mL; the “Mouse Cmin, po” value is 68 ng/mL. The IC50 on KDR (VEGFR2) was determined as 0.22 nM.
With `C#CCNC(=O)n1c(C)cc2c(F)c(Oc3ccnc4cc(C(=O)N5CCC[C@H]5CO)sc34)ccc21` [Example 5e, 4-Fluoro-5-[2-(2S-hydroxymethyl-pyrrolidine-1-carbonyl)-thieno[3,2-b]pyridin-7-yloxy]-2-methyl-indole-1-carboxylic acid prop-2-ynylamide], the IC50 at PDGFRβ came out at 14.1 nM. Also, in “Mouse PK assay”, the exposure (AUC) came out at 1960 ng·h/mL; the Cmax amounted to 1100 ng/mL; the “Mouse Cmin, po” value came out at 19 ng/mL. Further, the IC50 on KDR (VEGFR2) was 0.256 nM and 0.52 nM and 0.237 nM.
`C#CCNC(=O)n1c(C)c(Cl)c2c(F)c(Oc3ccnc4cc(C(=O)N5CC[C@H](O)C5)sc34)ccc21` [Example 6d, 3-Chloro-4-fluoro-5-[2-(3S-hydroxy-pyrrolidine-1-carbonyl)-thieno[3,2-b]pyridin-7-yloxy]-2-methyl-indole-1-carboxylic acid prop-2-ynylamide]: the IC50 on PDGFRβ turned out to be 29.1 nM. In the data set “Mouse PK assay”, the AUC stood at 1630 ng·h/mL; the Cmax is 302 ng/mL; the “Mouse Cmin, po” value came out at 125 ng/mL. Also, the IC50 at KDR (VEGFR2) was 0.123 nM and 0.31 nM.
With `Cc1cc2cc(Oc3ccnc4cc(C(=O)N5CC[C@H](O)C5)sc34)ccc2n1C(=O)NCCO` [Example 9k, 5-[2-(3S-Hydroxy-pyrrolidine-1-carbonyl)-thieno[3,2-b]pyridin-7-yloxy]-2-methyl-indole-1-carboxylic acid (2-hydroxy-ethyl)-amide], the IC50 at PDGFRβ turned out to be 274 nM. Moreover, in the data set “Mouse PK assay”, the AUC is 1100 ng·h/mL; the Cmax stood at 371 ng/mL; the “Mouse Cmin, po” value is 43 ng/mL. At KDR (VEGFR2), the IC50 turned out to be 1 nM.
